One block for each molecule: values may come before it.
Key:
[1] = test system: rpS6 phosphorylation in TSC2−/− cells; test: Immunoblot of rpS6 phosphorylation (S6K activity); assay type: cell-based, mouse; settings: serum-starved TSC2−/− cells, 100 nM staurosporine, two hours
Method: (§1) FIG. 2. Phosphorylation of Grb10 at S501/S503 is sensitive to rapamycin inhibition. (A) Identification of a doubly-phosphorylated rapamycin-sensitive Grb10 peptide (MNILSS*QS*[…] , SEQ ID NO: 2, * indicates phosphorylation sites) corresponding to S501/S503. (B) Evolutionary conservation of Grb10 S501/S503 among vertebrate species. […] TSC2−/− cells were starved for serum and treated with 20 nM rapamycin for the indicated times. Sequences, from top to bottom: SEQ ID NO: 1723 to SEQ ID NO: 1727, respectively. (D) Phosphorylation of Grb10 at S501/501 is sensitive to amino acids withdrawal. TSC2−/− cells were starved in DMEM overnight and then transferred to D-PBS for the indicated times. (E) Phosphorylation of Grb10 at S501/S503 is not affected by the pan-kinase inhibitor, staurosporine. TSC2−/− cells were starved for serum and treated with either 100 nM staurosporine or Ku-0063794 at the indicated concentrations for two hours. (F) Grb10 phosphorylation is increased upon growth factor stimulation. Wild type (WT) mouse embryonic fibroblasts (MEFs) were starved for serum overnight and then were stimulated with insulin (100 nM) or serum (10%) for 15 min. The cells were preincubated with the indicated compounds for two hours. […] Rapamycin (rapa) was used at 20 nM. (G) Grb10 phosphorylation at S501/S503 is sensitive to various mTOR kinase inhibitors. […]

[2] = test system: Grb10 S501/S503 phosphorylation in TSC2−/− cells; test: Immunoblot of Grb10 S501/S503 phosphorylation with phospho-specific antibody; assay type: cell-based, mouse; settings: serum-starved TSC2−/− cells, two hours; rapamycin 20 nM, staurosporine 100 nM, LY294002 20 μM, BEZ235 500 nM, torin 100 nM, pp 242 1 μM, Ku-0063794 at indicated concentrations
Method: FIG. 2. Phosphorylation of Grb10 at S501/S503 is sensitive to rapamycin inhibition. (A) Identification of a doubly-phosphorylated rapamycin-sensitive Grb10 peptide (MNILSS*QS*[…] , SEQ ID NO: 2, * indicates phosphorylation sites) corresponding to S501/S503. (B) Evolutionary conservation of Grb10 S501/S503 among vertebrate species. […] TSC2−/− cells were starved for serum and treated with 20 nM rapamycin for the indicated times. Sequences, from top to bottom: SEQ ID NO: 1723 to SEQ ID NO: 1727, respectively. (D) Phosphorylation of Grb10 at S501/501 is sensitive to amino acids withdrawal. TSC2−/− cells were starved in DMEM overnight and then transferred to D-PBS for the indicated times. (E) Phosphorylation of Grb10 at S501/S503 is not affected by the pan-kinase inhibitor, staurosporine. TSC2−/− cells were starved for serum and treated with either 100 nM staurosporine or Ku-0063794 at the indicated concentrations for two hours. (F) Grb10 phosphorylation is increased upon growth factor stimulation. Wild type (WT) mouse embryonic fibroblasts (MEFs) were starved for serum overnight and then were stimulated with insulin (100 nM) or serum (10%) for 15 min. The cells were preincubated with the indicated compounds for two hours. […] Rapamycin (rapa) was used at 20 nM. (G) Grb10 phosphorylation at S501/S503 is sensitive to various mTOR kinase inhibitors. TSC2−/− cells were serum-starved and treated with the indicated compounds for two hours. The concentrations of the compounds were rapamycin 20 nM, LY (LY294002) 20 μM, BEZ235 (NVP-BEZ235) 500 nM, torin 100 nM, and pp 242 1 μM.
We developed a phosphospecific antibody (FIGS. 9A and 9B) to further characterize these two Grb10 phosphorylation sites. […] The dephosphorylation kinetics correlated well with that of S6K.
We further investigated the effects of growth factor stimulation and rapamycin-mediated inhibition on Grb10 phosphorylation in other cell types. Wild-type MEFs were serum-starved and then stimulated with either insulin or 10% serum, both of which led to a robust increase in Grb10 phosphorylation (FIG. 2F). […] It was previously reported that Grb10 S503 (S476 in human Grb10 isoform 3) was phosphorylated by ERK1/2 in vitro (13).

[3] = test system: phospho-mTOR S2481 in TSC2−/− cells; test: Immunoblot of mTOR S2481 phosphorylation; assay type: cell-based, mouse; settings: starved TSC2−/− cells; 20 nM rapamycin acute treatment; pp 242 two hours
[4] = test system: Grb10 protein in TSC2−/− cells; test: Immunoblot of Grb10 protein level after long-term treatment; assay type: cell-based, mouse; settings: TSC2−/− cells, endogenous Grb10
Source text: FIG. 3. mTOR-mediated Grb10 phosphorylation is important for Grb10 stability. (A) Grb10 interacts with raptor, but not rictor. HA-tagged Grb10 was co-transfected with Myc-raptor or Myc-rictor in HEK293T cells. Cells were lysed in lysis buffer A, and the lysates were subjected to immunoprecipitation using anti-HA antibody conjugated beads. Raptor and rictor were probed with an antibody against the Myc-tag. (B) Grb10 is phosphorylated by mTOR in vitro. […] Phosphorylation of Grb10 at S501/S503 was detected by using the phospho-specific antibody against these two sites. (C) Long-term rapamycin treatment leads to Grb10 degradation in TSC2−/− cells. Note that Grb10 protein expression levels inversely correlated with Akt activity. Grb10 is highly overexpressed in TSC2−/− cells. mRNA level was determined using quantitative RT-PCR based on three biological replicate experiments. (D) Knockdown of raptor in TSC2−/− cells decreased Grb10 protein level. Cells were starved overnight and the lysates were probed with the antibodies indicated. (E) Grb10 is highly overexpressed in TSC2−/− cells. (F) S501A/S503A mutant is unstable compared with the wild-type or the S501D/S503D mutant. The same amount of DNA was transfected into HEK293T cells. […] Endogenous Grb10 was detected using an antibody that preferentially recognizes mouse Grb10 whereas the Grb10 DD mutant (of human origin) was detected using an anti-HA antibody.
(§2) FIG. 9. Phosphorylation of Grb10 at S501/S503 regulates its stability. […] Preincubation of the antibody with the […] completely eliminated the immunoreactivity. (B) Further validation of the phospho-specific antibody raised against the Grb10 S501/S503 sites. Grb10 WT, S501A/S503A (AA) and S501D/S503D (DD) were transfected into HEK239T cells and were probed with the antibody. Note that this antibody detected wild type (WT) Grb10, but neither of the mutant proteins. (C) Treatment of TSC2−/− cells with various mTOR kinase inhibitors led to Grb10 degradation. […] (E) Grb10 is highly overexpressed in TSC1−/− cells compared with their wild-type counterparts. (F) rapamycin treatment of TSC2−/− cells stably expressing wild type (WT) Grb10 led to lower levels of both endogenous and exogenous Grb10.
In addition, long-term treatment with mTOR kinase inhibitors, including LY-294002, NVP-BEZ235, torin and pp 242 all led to reduced Grb10 protein expression (FIG. 9C). Similar results were obtained in TSC1−/− MEFs (FIG. 9D). In contrast, we found Grb10 was highly overexpressed in TSC2−/− and TSC1−/− MEFs compared with their wild-type counterparts (FIGS. 3E and 9E), correlating with elevated mTORC1 activity in these cells. […]

[5] = test system: Grb10 S501/S503 phosphorylation in wild type (WT) MEFs; test: Immunoblot of Grb10 phosphorylation after insulin or serum stimulation; assay type: cell-based, mouse; settings: serum-starved WT MEFs, preincubated two hours (rapamycin 20 nM, AZD6244 5 μM), insulin 100 nM or serum 10% 15 min
Method: as §1

[6] = test system: ERK in wild type (WT) MEFs; test: Immunoblot of ERK activity after growth factor stimulation; assay type: cell-based, mouse; settings: serum-starved WT MEFs, AZD6244 5 μM two hours, insulin or serum 15 min
Method: as §1

[7] = test system: Grb10 protein in TSC1−/− cells; test: Immunoblot of Grb10 protein level in TSC1−/− cells; assay type: cell-based, mouse
Method: as §2
In addition, long-term treatment with mTOR kinase inhibitors, including LY-294002, NVP-BEZ235, torin and pp 242 all led to reduced Grb10 protein expression (FIG. 9C). Similar results were obtained in TSC1−/− MEFs (FIG. 9D). In contrast, we found Grb10 was highly overexpressed in TSC2−/− and TSC1−/− MEFs compared with their wild-type counterparts (FIGS. 3E and 9E), correlating with elevated mTORC1 activity in these cells.

Akt phosphorylation = test: Immunoblot of insulin-induced Akt phosphorylation; settings: FIG. 5C
Method: For the Ku-screen, wild-type MEFs were grown in light and heavy SILAC media and starved overnight for serum. […] Both the light and heavy cell were subsequently stimulated with insulin for 15 minutes and samples were pooled and analyzed by quantitative mass spectrometry.
Samples were boiled for 5 min and subject to electrophoresis using the standard SDS-PAGE method. Proteins were then transferred to a nitrocellulose membrane (Whatman). The membranes were blocked with a TBST buffer (25 mM Tris-HCl, pH 7.5, 150 mM NaCl, 0.05% Tween 20) containing 3% nonfat dried milk, and probed overnight with primary antibodies at 4° C. and for 1 h at RT with peroxidase-conjugated secondary antibodies. Blots were developed using enhanced chemiluminescence, exposed on autoradiograph film and developed using standard methods.

wild-type MEFs = test: Ku-0063794 screen: SILAC quantitative phosphoproteomics in rapamycin-inhibited, insulin-stimulated cells
[8] = biological target: T1, Myc-tagged rictor (pRK5-Myc-Rictor) (UniProt Q6R327 1-1708); test: co-immunoprecipitation with anti-HA beads from co-transfected HEK293T cells, anti-Myc blot
T1 construct: Co-overexpressed with HA-Grb10 in HEK293T cells; not shown: Myc tag
T1 sequence (Q6R327 whole entry): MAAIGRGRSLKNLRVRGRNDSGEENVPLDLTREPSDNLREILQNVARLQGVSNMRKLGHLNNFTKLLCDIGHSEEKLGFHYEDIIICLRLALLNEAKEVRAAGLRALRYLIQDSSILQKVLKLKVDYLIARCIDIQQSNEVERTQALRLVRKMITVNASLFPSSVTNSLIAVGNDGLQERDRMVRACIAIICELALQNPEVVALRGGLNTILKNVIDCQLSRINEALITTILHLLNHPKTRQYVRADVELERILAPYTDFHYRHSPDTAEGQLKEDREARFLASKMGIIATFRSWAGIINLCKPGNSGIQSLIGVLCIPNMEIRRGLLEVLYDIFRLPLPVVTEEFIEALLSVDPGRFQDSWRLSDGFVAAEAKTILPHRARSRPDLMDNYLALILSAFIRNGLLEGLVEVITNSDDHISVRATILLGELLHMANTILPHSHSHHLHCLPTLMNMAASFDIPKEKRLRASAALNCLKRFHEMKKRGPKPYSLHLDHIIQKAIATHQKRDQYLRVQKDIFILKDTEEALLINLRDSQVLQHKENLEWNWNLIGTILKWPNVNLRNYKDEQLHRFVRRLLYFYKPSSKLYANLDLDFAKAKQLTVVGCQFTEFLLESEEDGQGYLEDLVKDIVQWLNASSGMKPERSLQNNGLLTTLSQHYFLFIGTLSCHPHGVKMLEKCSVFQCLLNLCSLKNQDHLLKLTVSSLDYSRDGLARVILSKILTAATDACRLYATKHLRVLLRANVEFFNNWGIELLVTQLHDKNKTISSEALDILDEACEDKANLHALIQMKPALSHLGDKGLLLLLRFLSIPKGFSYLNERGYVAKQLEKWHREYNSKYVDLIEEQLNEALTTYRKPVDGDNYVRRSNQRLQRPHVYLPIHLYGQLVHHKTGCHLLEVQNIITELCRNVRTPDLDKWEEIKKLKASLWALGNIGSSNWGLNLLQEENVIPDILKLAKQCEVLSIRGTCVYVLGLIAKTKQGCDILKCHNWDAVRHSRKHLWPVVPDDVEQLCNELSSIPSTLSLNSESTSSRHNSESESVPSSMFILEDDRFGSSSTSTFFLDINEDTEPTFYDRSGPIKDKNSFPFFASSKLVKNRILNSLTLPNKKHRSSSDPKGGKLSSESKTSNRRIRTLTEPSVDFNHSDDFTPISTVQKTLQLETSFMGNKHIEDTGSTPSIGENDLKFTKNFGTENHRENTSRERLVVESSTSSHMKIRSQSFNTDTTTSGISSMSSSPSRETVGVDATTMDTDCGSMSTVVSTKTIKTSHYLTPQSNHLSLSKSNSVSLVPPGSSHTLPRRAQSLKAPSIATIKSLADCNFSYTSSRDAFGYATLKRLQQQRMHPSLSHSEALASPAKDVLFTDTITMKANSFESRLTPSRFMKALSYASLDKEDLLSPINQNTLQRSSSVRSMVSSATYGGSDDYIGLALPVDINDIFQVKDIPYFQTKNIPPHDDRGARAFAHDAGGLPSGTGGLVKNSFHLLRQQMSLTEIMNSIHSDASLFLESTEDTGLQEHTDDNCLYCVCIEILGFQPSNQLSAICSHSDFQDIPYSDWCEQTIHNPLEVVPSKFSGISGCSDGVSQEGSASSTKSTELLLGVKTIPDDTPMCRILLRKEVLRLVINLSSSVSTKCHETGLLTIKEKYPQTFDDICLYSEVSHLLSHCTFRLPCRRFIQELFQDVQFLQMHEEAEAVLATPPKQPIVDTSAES

[9] = downregulated phosphorylation, wt MEFs, 20 nM rapamycin + 2 μM Ku-0063794 2 h vs rapamycin alone, insulin 15 min

Molecule: CN[C@@H]1C[C@H]2O[C@@](C)([C@@H]1OC)n1c3ccccc3c3c4c(c5c6ccccc6n2c5c31)C(=O)NC4 [staurosporine]
rpS6 phosphorylation (S6K activity) [1]: complete loss
Grb10 S501/S503 phosphorylation (immunoblot) [2]: No change

Molecule: CC(C)n1nc(-c2cc3cc(O)ccc3[nH]2)c2c(N)ncnc21 [pp 242]
Grb10 S501/S503 phosphorylation (immunoblot) [2]: completely abolished
mTOR S2481 phosphorylation (immunoblot) [3]: completely ablated
Grb10 protein levels after long-term treatment [4]: reduced

Molecule: Cn1cnc2c(F)c(Nc3ccc(Br)cc3Cl)c(C(=O)NOCCO)cc21 [AZD6244]
insulin- or serum-induced Grb10 S501/S503 phosphorylation [5]: no effect
activities of ERK [6]: completely abolished

Molecule: Cn1c(=O)n(-c2ccc(C(C)(C)C#N)cc2)c2c3cc(-c4cnc5ccccc5c4)ccc3ncc21 [NVP-BEZ235]
Grb10 S501/S503 phosphorylation (immunoblot) [2]: completely abolished
level of Grb10 in TSC1−/− cells [7]: decreased level
Grb10 protein levels after long-term treatment [4]: reduced

Median (treated/ctrl) fold-change of phosphopeptide TTS*FAESCKPVQQPSAFGSMK, Gsk3β S9 (wild-type MEFs; [9]): ~2.2 fold
Molecule: COc1ccc(-c2ccc3c(N4CCOCC4)nc(N4C[C@@H](C)O[C@@H](C)C4)nc3n2)cc1CO [Ku-0063794]
insulin-induced Akt phosphorylation (Akt phosphorylation): inhibits
Grb10 S501/S503 phosphorylation (immunoblot) [2]: dose-dependent dephosphorylation
4EBP T36/T45 phosphorylation (FIG. 6A) (wild-type MEFs; Ku-0063794 screen): completely abolished
intensity of T70 singly phosphorylated 4EBP1 peptide (wild-type MEFs; Ku-0063794 screen): did not change
rpS6 S235/236 phosphorylation (Class I site) (wild-type MEFs; Ku-0063794 screen, rapamycin-inhibited background): not further decreased
Median (treated/ctrl) fold-change of phosphopeptide DRSSS*APNVHINTIEPVNIDDLIR, Braf S312 (wild-type MEFs; [9]): 2.1 fold
Median (treated/ctrl) fold-change of phosphopeptide Eif4ebp1 T36, T45 (wild-type MEFs; [9]): 7.2 fold
Median (treated/ctrl) fold-change of phosphopeptide Eif4ebp2 S65 (wild-type MEFs; [9]): 6.8 fold
Median (treated/ctrl) fold-change of phosphopeptide LGS*FGSITR, Flnc S2234 (wild-type MEFs; [9]): 2.4 fold
Median (treated/ctrl) fold-change of phosphopeptide LNT*SDFQK, Akt1s1 T247 (wild-type MEFs; [9]): 31.3 fold
Median (treated/ctrl) fold-change of phosphopeptide TAS*GSS*VTSLEGTR, Ndrg1 S330, S333 (wild-type MEFs; [9]): 4.1 fold
Median (treated/ctrl) fold-change of phosphopeptide TGS*ESSQTGASATSGR, Eif4b S422 (wild-type MEFs; [9]): 2.2 fold

Molecule: CCC(=O)N1CCN(c2ccc(-n3c(=O)ccc4cnc5ccc(-c6cnc7ccccc7c6)cc5c43)cc2C(F)(F)F)CC1 [torin]
Grb10 S501/S503 phosphorylation (immunoblot) [2]: completely abolished
Grb10 protein levels after long-term treatment [4]: reduced

binding result [8]: no binding
B1: HA-tagged Grb10 (human growth factor receptor-bound protein 10, wild type) (other, UniProt Q13322-3 1-536, looked up)
chain: MNASLESLYSACSMQSDTVPLLQNGQHARSQPRASGPPRSIQPQVSPRQRVQRSQPVHILAVRRLQEEDQQFRTSSLPAIPNPFPELCGPGSPPVLTPGSLPPSQAAAKQDVKVFSEDGTSKVVEILADMTARDLCQLLVYKSHCVDDNSWTLVEHHPHLGLERCLEDHELVVQVESTMASESKFLFRKNYAKYEFFKNPMNFFPEQMVTWCQQSNGSQTQLLQNFLNSSSCPEIQGFLHVKELGKKSWKKLYVCLRRSGLYCSTKGTSKEPRHLQLLADLEDSNIFSLIAGRKQYNAPTDHGLCIKPNKVRNETKELRLLCAEDEQTRTCWMTAFRLLKYGMLLYQNYRIPQQRKALLSPFSTPVRSVSENSLVAMDFSGQTGRVIENPAEAQSAALEEGHAWRKRSTRMNILGSQSPLHPSTLSTVIHRTQHWFHGRISREESHRIIKQQGLVDGLFLLRDSQSNPKAFVLTLCHHQKIKNFQILPCEDDGQTFFSLDDGNTKFSDLIQLVDFYQLNKGVLPCKLKHHCIRVAL
notes: Expressed by transfection in HEK293T cells; The phospho-specific antibody recognises it in the form phosphorylated at S501/S503 (mouse isoform 1 numbering) in cells; also called WT-Grb10; Grb10 WT; not shown: HA tag from vector pKH3
